This passage reports IC50 results from US20250101019A1 (Insilico Medicine IP Limited, priority 2022, published 2025).

For assay [1], the target named is T1, ENPP1 (Homo sapiens (Human), UniProt P22413). Description: ATP-Glo enzymatic assay (ATP substrate, AMP-Glo readout). The note with it: 25° C. for 60 min, 50 mM Tris pH 8.8. The assay is classed as biochemical. The procedure: (§1) Example A: Enzymatic Assay
(§2) • 1. Diluted compounds in DMSO by hand for 11 points, 3 folds dilution. Then transferred 0.02 μL compounds to 384 assay plate by ECHO. • 2. Added 2 μL specified concentration of ENPP1 to 384 assay plate. Centrifuged 1000 RPM for 1 min. • 3. Added 2 μL specified concentration of ATP to the assay plate. Centrifuged 1000 RPM for 1 min. • 4. Incubated at 25° C. for 60 min. • 5. Added 4 μL AMP-Glo Reagent to the assay plates. • 6. Centrifuged 1000 RPM for 1 min, incubate at 25° C. for 1 hours. • 7. Added 8 μL Kinase Detection Reagent to the assay plates. • 8. Centrifuged 1000 RPM for 1 min, incubated at 25° C. for 1 hours. The final assay reaction mixture contained a buffer of 50 mM Tris pH 8.8, 250 mM NaCl and 0.1% BSA • 9. Read on Envision for US LUM as RLU. • 10. Analyzed the raw data using the equation (V. Data analysis). cGAMP-Glo Assay: • 1. Diluted compounds in DMSO by hand for 11 points, 3 folds dilution. Then transferred 0.02 μL compounds to 384 assay plate by ECHO. • 2. Added 2 μL specified concentration of ENPP1 to 384 assay plate, centrifuged 1000 RPM for 1 min. • 3. Added 2 μL specified concentration of 2′3′-cGAMP to the assay plate, centrifuged 1000 RPM for 1 min. • 4. Incubated at 25° C. for 60 min. • 5. Added 4 μL AMP-Glo Reagent to the assay plates. • 6. Centrifuged 1000 RPM for 1 min, incubated at 25° C. for 1 hours. • 7. Added 8 μL Kinase Detection Reagent to the assay plates. • 8. Centrifuged 1000 RPM for 1 min, incubate at 25° C. for 1 hours. The final assay reaction mixture contained a buffer of 50 mM Tris pH 8.8, 250 mM NaCl and 0.1% BSA • 9. Read on Envision for US LUM as RLU. • 10. Analyzed the raw data using the equation (V. Data analysis).

Assay [2] has as its target T1, ENPP1. Description: cGAMP-Glo enzymatic assay (2′3′-cGAMP substrate, AMP-Glo readout). It counts as biochemical. The note with it: substrate 2′3′-cGAMP; 25° C. for 60 min; 50 mM Tris pH 8.8. The procedure: as §1, §2

As usually defined, the IC50 is the point on the concentration scale where inhibition reaches its midpoint. The low end stands for greater potency, the high end for weaker potency.

SMILES strings stand for the structures.

T1 sequence (P22413 whole entry, species assumed): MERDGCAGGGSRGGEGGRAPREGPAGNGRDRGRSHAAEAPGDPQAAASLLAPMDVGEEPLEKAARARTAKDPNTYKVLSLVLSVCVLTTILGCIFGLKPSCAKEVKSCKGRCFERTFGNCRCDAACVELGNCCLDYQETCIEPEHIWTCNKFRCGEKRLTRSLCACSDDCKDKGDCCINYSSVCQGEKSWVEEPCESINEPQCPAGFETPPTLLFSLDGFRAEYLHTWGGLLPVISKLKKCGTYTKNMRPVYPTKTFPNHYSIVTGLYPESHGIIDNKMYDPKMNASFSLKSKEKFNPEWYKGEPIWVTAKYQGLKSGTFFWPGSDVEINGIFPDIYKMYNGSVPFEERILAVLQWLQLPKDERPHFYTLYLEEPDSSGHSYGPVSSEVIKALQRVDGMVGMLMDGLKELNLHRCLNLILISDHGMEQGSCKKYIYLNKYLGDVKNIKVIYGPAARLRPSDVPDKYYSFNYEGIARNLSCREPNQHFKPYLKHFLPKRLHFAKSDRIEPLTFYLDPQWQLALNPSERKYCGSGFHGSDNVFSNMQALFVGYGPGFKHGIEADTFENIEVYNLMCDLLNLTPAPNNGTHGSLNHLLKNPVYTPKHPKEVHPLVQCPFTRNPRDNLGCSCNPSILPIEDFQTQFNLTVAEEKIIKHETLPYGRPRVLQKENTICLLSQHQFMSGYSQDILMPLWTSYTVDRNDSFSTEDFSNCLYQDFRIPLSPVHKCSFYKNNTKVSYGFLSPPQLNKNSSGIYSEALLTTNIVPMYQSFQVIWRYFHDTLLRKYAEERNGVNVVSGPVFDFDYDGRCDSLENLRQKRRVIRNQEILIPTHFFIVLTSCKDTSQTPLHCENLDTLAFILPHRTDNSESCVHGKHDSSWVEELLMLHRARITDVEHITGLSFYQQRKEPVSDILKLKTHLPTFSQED

For `CCc1ncc2nc(C)n(Cc3c(F)cc(S(N)(=O)=O)cc3F)c2c1-c1ccccc1` [Example 48, 4-((6-ethyl-2-methyl-7-phenyl-1H-imidazo[4,5-c]pyridin-1-yl)methyl)-3,5-difluorobenzenesulfonamide], the IC50 in assay [1] and in assay [2] was less than 1 nM throughout.

Take `Cc1ncc2nc(CN(C)C)n(Cc3c(F)cc(S(N)(=O)=O)cc3F)c2c1-c1ccccc1` [Example 49]: the IC50 in assay [1] and in assay [2] was less than 1 nM in each case.

With `Cc1ncc2nc(CC(F)(F)F)n(Cc3c(F)cc(S(N)(=O)=O)cc3F)c2c1-c1ccccc1` [Example 50, 3,5-difluoro-4-((6-methyl-7-phenyl-2-(2,2,2-trifluoroethyl)-1H-imidazo[4,5-c]pyridin-1-yl)methyl)benzenesulfonamide], the IC50 in assay [1] and in assay [2] was less than 1 nM each time.

For the compound `Cc1ncc2nc(CC3CC3)n(Cc3c(F)cc(S(N)(=O)=O)cc3F)c2c1-c1ccccc1` [Example 51, 4-((2-(cyclopropylmethyl)-6-methyl-7-phenyl-1H-imidazo[4,5-c]pyridin-1-yl)methyl)-3,5-difluorobenzenesulfonamide], the IC50 in assay [1] and in assay [2] was less than 1 nM throughout.

Take `Cc1ncc2nc(C)n(Cc3c(F)cc(S(N)(=O)=O)cc3F)c2c1C1CC1` [Example 52, 4-((7-cyclopropyl-2,6-dimethyl-1H-imidazo[4,5-c]pyridin-1-yl)methyl)-3,5-difluorobenzenesulfonamide]: the IC50 in assay [1] and in assay [2] was less than 1 nM in each case.

Turning to `Cc1ncc2nc(C3CC3)n(Cc3ccc(S(N)(=O)=O)cn3)c2c1-c1ccccc1` [Example 53, 6-((2-cyclopropyl-6-methyl-7-phenyl-1H-imidazo[4,5-c]pyridin-1-yl)methyl)pyridine-3-sulfonamide], the IC50 in assay [1] and in assay [2] was less than 1 nM in each case.

On to `Cc1ncc2nc(C3CC3)n(Cc3ccc(S(N)(=O)=O)nc3)c2c1-c1ccccc1` [Example 54, 5-((2-cyclopropyl-6-methyl-7-phenyl-1H-imidazo[4,5-c]pyridin-1-yl)methyl)pyridine-2-sulfonamide], for which the IC50 in assay [1] and in assay [2] was less than 1 nM each time.

On to `Cc1cc(Cn2c(C3CC3)nc3cnc(C)c(-c4ccccc4)c32)ccc1S(N)(=O)=O` [Example 55, 4-((2-cyclopropyl-6-methyl-7-phenyl-1H-imidazo[4,5-c]pyridin-1-yl)methyl)-2-methylbenzenesulfonamide], for which the IC50 in assay [1] and in assay [2] was less than 1 nM in each case.

Consider `COc1ncc2c(c1-c1ccccc1)n(Cc1c(F)cc(S(N)(=O)=O)cc1F)c(=O)n2C` [Example 56, 3,5-difluoro-4-((6-methoxy-3-methyl-2-oxo-7-phenyl-2,3-dihydro-1H-imidazo[4,5-c]pyridin-1-yl)methyl)benzenesulfonamide], for which the IC50 in assay [1] and in assay [2] was less than 1 nM each time.

For `COc1ncc2c(c1-c1ccccc1)N(Cc1c(F)cc(S(N)(=O)=O)cc1F)C(=O)C2` [Example 57, 3,5-difluoro-4-((6-methoxy-2-oxo-7-phenyl-2,3-dihydro-1H-pyrrolo[3,2-c]pyridin-1-yl)methyl)benzenesulfonamide], the IC50 in assay [1] and in assay [2] was less than 1 nM each time.

`Cc1ncc2nc(C)n(Cc3c(F)cc(S(N)(=O)=O)cc3F)c2c1C1=CCCC1` [Example 58, 4-((7-(cyclopent-1-en-1-yl)-2,6-dimethyl-1H-imidazo[4,5-c]pyridin-1-yl)methyl)-3,5-difluorobenzenesulfonamide]: the IC50 in assay [1] and in assay [2] was less than 1 nM in each case.

`Cc1ncc2c(c1-c1ccccc1)n(Cc1c(F)cc(S(N)(=O)=O)cc1F)c(=O)n2C` [Example 59, 4-((3,6-dimethyl-2-oxo-7-phenyl-2,3-dihydro-1H-imidazo[4,5-c]pyridin-1-yl)methyl)-3,5-difluorobenzenesulfonamide]: the IC50 in assay [1] and in assay [2] was less than 1 nM throughout.

Take `Cc1ncc2nc(CN3CCCC3)n(Cc3c(F)cc(S(N)(=O)=O)cc3F)c2c1-c1ccccc1` [Example 60, 3,5-difluoro-4-((6-methyl-7-phenyl-2-(pyrrolidin-1-ylmethyl)-1H-imidazo[4,5-c]pyridin-1-yl)methyl)benzenesulfonamide]: the IC50 in assay [1] and in assay [2] was less than 1 nM in each case.

For the compound `COc1ncc2c(c1C1=CCCC1)n(Cc1c(F)cc(S(N)(=O)=O)cc1F)c(=O)n2C` [Example 61, 4-((7-(cyclopent-1-en-1-yl)-6-methoxy-3-methyl-2-oxo-2,3-dihydro-1H-imidazo[4,5-c]pyridin-1-yl)methyl)-3,5-difluorobenzenesulfonamide], the IC50 in assay [1] and in assay [2] was less than 1 nM each time.

For `Cc1ncc2c(c1C1=CCCC1)n(Cc1c(F)cc(S(N)(=O)=O)cc1F)c(=O)n2C` [Example 62, 4-((7-(cyclopent-1-en-1-yl)-3,6-dimethyl-2-oxo-2,3-dihydro-1H-imidazo[4,5-c]pyridin-1-yl)methyl)-3,5-difluorobenzenesulfonamide], the IC50 in assay [1] and in assay [2] was less than 1 nM throughout.

Turning to `Cc1ncc2nc(C)n(Cc3c(F)cc(S(N)(=O)=O)cc3F)c2c1C` [Example 63, 3,5-difluoro-4-((2,6,7-trimethyl-1H-imidazo[4,5-c]pyridin-1-yl)methyl)benzenesulfonamide], the IC50 in assay [1] and in assay [2] was less than 1 nM each time.

`CC#Cc1c(C)ncc2nc(C)n(Cc3c(F)cc(S(N)(=O)=O)cc3F)c12` [Example 64, 4-((2,6-dimethyl-7-(prop-1-yn-1-yl)-1H-imidazo[4,5-c]pyridin-1-yl)methyl)-3,5-difluorobenzenesulfonamide]: the IC50 in assay [1] and in assay [2] was less than 1 nM in each case.

Take `Cc1ncc2nc(C)n(Cc3ccc(S(N)(=O)=O)cn3)c2c1-c1ccccc1` [Example 65, 6-((2,6-dimethyl-7-phenyl-1H-imidazo[4,5-c]pyridin-1-yl)methyl)pyridine-3-sulfonamide]: the IC50 in assay [1] and in assay [2] was less than 1 nM each time.

On to `Cc1ncc2nc(C)n(Cc3ccc(S(N)(=O)=O)nc3)c2c1-c1ccccc1` [Example 66, 5-((2,6-dimethyl-7-phenyl-1H-imidazo[4,5-c]pyridin-1-yl)methyl)pyridine-2-sulfonamide], for which the IC50 in assay [1] and in assay [2] was less than 1 nM in each case.

On to `Cc1ncc2nc(C(F)(F)F)n(Cc3ccc(S(N)(=O)=O)cn3)c2c1-c1ccccc1` [Example 67, 6-((6-methyl-7-phenyl-2-(trifluoromethyl)-1H-imidazo[4,5-c]pyridin-1-yl)methyl)pyridine-3-sulfonamide], for which the IC50 in assay [1] and in assay [2] was less than 1 nM throughout.

Regarding `Cc1ncc2nc(C)n(Cc3ncc(S(N)(=O)=O)cc3F)c2c1-c1ccccc1` [Example 68, 6-((2,6-dimethyl-7-phenyl-1H-imidazo[4,5-c]pyridin-1-yl)methyl)-5-fluoropyridine-3-sulfonamide], the half-maximal inhibitory concentration (IC50) in assay [1] and in assay [2] was less than 1 nM throughout.

Turning to `Cc1ncc2nc(C(F)(F)F)n(Cc3ncc(S(N)(=O)=O)cc3F)c2c1-c1ccccc1` [Example 69, 5-fluoro-6-((6-methyl-7-phenyl-2-(trifluoromethyl)-1H-imidazo[4,5-c]pyridin-1-yl)methyl)pyridine-3-sulfonamide], the half-inhibitory concentration (IC50) in assay [1] and in assay [2] was less than 1 nM each time.

For `Cc1ncc2nc(C3CC3)n(Cc3ncc(S(N)(=O)=O)cc3F)c2c1-c1ccccc1` [Example 70, 6-((2-cyclopropyl-6-methyl-7-phenyl-1H-imidazo[4,5-c]pyridin-1-yl)methyl)-5-fluoropyridine-3-sulfonamide], the IC50 in assay [1] and in assay [2] was less than 1 nM each time.

Take `Cc1ncc2nc(C(F)F)n(Cc3ccc(S(N)(=O)=O)cn3)c2c1-c1ccccc1` [Example 71]: the IC50 in assay [1] and in assay [2] was less than 1 nM in each case.

In the case of `Cc1ncc2nc(C(F)F)n(Cc3ncc(S(N)(=O)=O)cc3F)c2c1-c1ccccc1` [Example 72, 6-((2-(difluoromethyl)-6-methyl-7-phenyl-1H-imidazo[4,5-c]pyridin-1-yl)methyl)-5-fluoropyridine-3-sulfonamide], the half-inhibitory concentration (IC50) in assay [1] and in assay [2] was less than 1 nM each time.

In the case of `COc1ncc2nc(C)n(Cc3ncc(S(N)(=O)=O)cc3F)c2c1-c1ccccc1` [Example 73, 5-fluoro-6-((6-methoxy-2-methyl-7-phenyl-1H-imidazo[4,5-c]pyridin-1-yl)methyl)pyridine-3-sulfonamide], the IC50 in assay [1] and in assay [2] was less than 1 nM throughout.
